Test results taken from the NIST ThermoML archive (doi:10.1016/j.jct.2016.12.029).
± gives the expanded uncertainty stated by the source.

Details: Gas, Buoyancy - hydrostatic balance with magnetic suspension - one sinker

C=C(F)C(F)(F)F [2,3,3,3-tetrafluoro-1-propene]
Details | mass density [kg/m3]
265.46 K, 101.2 kPa | 5.404 ± 0.069
265.48 K, 207.2 kPa | 11.507 ± 0.069
270.36 K, 101 kPa | 5.279 ± 0.066
270.38 K, 164.6 kPa | 8.792 ± 0.069
270.38 K, 250.3 kPa | 13.798 ± 0.07
275.39 K, 106.2 kPa | 5.448 ± 0.066
275.4 K, 208.6 kPa | 11.064 ± 0.068
275.42 K, 303.7 kPa | 16.657 ± 0.071
280.28 K, 103.6 kPa | 5.208 ± 0.064
280.29 K, 176.6 kPa | 9.076 ± 0.066
280.29 K, 274 kPa | 14.527 ± 0.069
280.29 K, 356.2 kPa | 19.43 ± 0.072
285.27 K, 258.8 kPa | 13.34 ± 0.067
285.28 K, 104.7 kPa | 5.162 ± 0.062
285.28 K, 164.2 kPa | 8.23 ± 0.064
285.28 K, 358.5 kPa | 19.078 ± 0.069
290.38 K, 102.2 kPa | 4.937 ± 0.061
290.39 K, 184.5 kPa | 9.113 ± 0.063
290.4 K, 308.8 kPa | 15.792 ± 0.067
290.4 K, 421.2 kPa | 22.298 ± 0.07
295.4 K, 101.7 kPa | 4.829 ± 0.06
295.4 K, 196.9 kPa | 9.565 ± 0.062
295.4 K, 400.6 kPa | 20.565 ± 0.07
295.4 K, 600.7 kPa | 32.885 ± 0.077
295.41 K, 305.3 kPa | 15.255 ± 0.065
295.41 K, 510.2 kPa | 27.092 ± 0.074
300.2 K, 668.8 kPa | 36.434 ± 0.077
300.21 K, 108 kPa | 5.039 ± 0.059
300.21 K, 218.9 kPa | 10.489 ± 0.061
300.21 K, 324 kPa | 15.933 ± 0.064
300.21 K, 439.4 kPa | 22.291 ± 0.069
300.21 K, 545.8 kPa | 28.564 ± 0.074
